From publication PMC7867085, “In Vitro and In Vivo Antitumor Activity of Indolo[2,3-b] Quinolines, Natural Product Analogs from Neocryptolepine Alkaloid” (Molecules, 2021) come the findings set out here.

The test system of data set [1] is normal mice (liver homogenate). Briefly: Lipid peroxidation and antioxidant enzymes in liver homogenate of normal mice. It is filed as in vivo, Swiss female albino mice. Particulars: 100 mg/kg SC for 5 days. From the text: Measuring antioxidant enzyme levels and lipid peroxidation was utilized to evaluate the pharmacological effect of indoloquinoline derivatives. The study group was divided into two subgroups, normal mice and tumor-bearing mice. Each subgroup is further subdivided into two groups, one group received indoloquinoline derivatives, and the other group was marked as a placebo group.
The eradicated liver was double washed first, with ice-cold normal saline then, with cold 0.15 mol/L Tris-HCl buffer (pH 7.4). The clean organ was dried and weighed, and used to prepare a 10% w/v homogenate in 0.15 mol/L Tris-HCl buffer. A portion of the prepared homogenate was centrifuged at 1500 rpm for 15 min at 4 °C [47] and used for estimating lipid peroxidation, SOD [48] and CAT [49] analysis was carried out using the supernatant.

The test system of another data set is EAC cells. Briefly: Flow cytometric analysis of cell cycle distribution of EAC cells from treated mice. It is filed as in vivo. Particulars: EAC bearing mice, 100 mg/kg for 5 days; for Apoptotic Cells (sub-G1) / Non-Apoptotic Cells G0/G1 / Non-Apoptotic Cells G2/M / Non-Apoptotic Cells S: percentage of cells. From the text: Flow cytometry is a technique that gives a clue to the mechanism by which cytotoxic agents affect the cell cycle by sorting and analyzing cells based on their content of DNA. Flow cytometry was used to further evaluate the effects of the indoloquinoline compounds modes-of-action to the cellular level, and we extended our studies on the cell cycle effects. To know whether cell cycle changes were aligned with the inhibition of cell growth, the cell cycle phase distribution was examined via flow cytometry. The cell cycle was analyzed in EAC-bearing mice treated with indoloquinoline analogs 6a, 6b, 6c and 6d (at a dose of 100 mg/kg for 5 constitutive days).
Flow cytometry was used to calculate the percentage of cells in each phase of the cell cycle in both positive control (exposed to 0.3% DMSO) and treated cells, results illustrated in (Table 10 and Figure 2). The influence of indoloquinoline derivatives on EAC cells indicated noticeable cell cycle specificity. In comparison with the positive control group, an appreciable change in the cell cycle occurred in giving the studied compounds. The sub-G1 population indicated apoptotic-associated chromatin degradation.
Fresh tumor tissue specimens from treated and untreated groups were transported to our laboratory in isotonic saline. The specimens were prepared following these steps: • The material was washed with isotone tris EDTA buffer. Then, the cell suspension was centrifuged at 1800 rpm for 10 min; the supernatant was then separated; • The cell is then fixed in ice-cold 96–100% ethanol (BDH) in approximately 1 mL for each sample; • Two milliliters of phosphate buffer solution (PBS) were used to wash the sample, which was recentrifuged at 1500 rpm for 5 min then the supernatant was thrown away; • Granules of the Tumor cells were put back into suspension using 200–500 µL of PBS. Into polystyrene tube, 100 µL of the suspension was transferred and then stained with 1.5 mL of propidium iodide. The tube is kept at 4 °C in a dark place for one hour; • The sample was run in the flow cytometer within 30 min after the addition of propidium iodide.
The flow cytometer was carried out with FACS caliber flow cytometer (Becton Dickinson, Sunnyvale, CA, USA) equipped with a compact air cocked low-power 15 m watt argon ion laser beam (488 nm). The average number of evaluated nuclei per specimen 20,000, and the number of nuclei scanned was 120 per second. DNA histogram derived from flow cytometry was obtained with a computer program for Dean and Jett’s mathematical analysis. Data analysis was conducted using DNA analysis program MPDFIT (Verity Software House, Inc. Box 247, Topsham, ME 04086 USA, version: 2.0, power Mac with 131,072 KB Registration No.: 42000960827-16193213 Date made: 16 September 1996). This software calculated the CV around the G0/G1 peak and the percentage of cells in each phase (G0/G1, S and G2/M) of the DNA cell cycle for each sample.
Background: In flow cytometry, cells or beads pass a laser one at a time.

In the next data set the test system is Swiss albino mice. Briefly: Acute / short-term toxicity study, single subcutaneous dose. The class given is in vivo. Particulars: for No. of Death: 7 mice; for No. of Death / % Mortality: observed 24 h. As to the method:
To confirm the safety of indoloquinoline compounds, acute and short-term toxicity studies were done. Forty-two Swiss albino mice were divided into six groups of seven mice each. The first five groups were subcutaneously injected in single graded doses. The first five groups were given a single dose of graded doses (400, 800, 1200, 1600, and 2000 mg/kg body weight) of indoloquinoline analog containing 11-substituted N-methyl piperazinyl side-chain 6d by the subcutaneous route, while the last group received 0.2 mL of (water: DMSO, 7:3) by the same route. The animals were then observed for 24 h for toxicity signs and death. The LD50 of 6d was calculated using the arithmetic methods of Karber as modified by Aliu and Nwude. The mortality rates and calculated LD50 are presented in (Table 3).

As to `Cn1c2nc3ccccc3c-2c(NCCc2c[nH]c3ccccc23)c2ccccc21` [Compound 6b, N-(2-(1H-Indol-3-yl)ethyl)-5-methyl-5H-indolo[2,3-b] Quinolin-11-amine], in data set [1], the CAT was determined as 5.7 ± 0.31 KU/mg Tissue/s, the “Lipid Peroxidation” value turned out to be 247.96 ± 6.3 nmol MDA/g Tissue and the SOD stood at 140.2 ± 1.9 U/g Tissue. Further, in the data set with EAC cells, the “increase of G0/G1 cell population relative to positive control” value was 2%, the “increase of G2/M fraction relative to positive control” value was found to be 26.2%, the “increase of sub-G1 group as compared to control” value (shortened to “increase of sub-G1 group”) was determined as 1452% and the “reduction of S-phase fraction relative to positive control” value is given as “about 70.3%”. In the data set on EAC cells, the “Apoptotic Cells (sub-G1)” value was found to be 24.36 ± 0.01, the “Non-Apoptotic Cells G0/G1” value came out at 78.44 ± 0.04, the “Non-Apoptotic Cells G2/M” value came to 19.21 ± 0.09 and the “Non-Apoptotic Cells S” value is recorded as 2.35 ± 0.13.
For “5(5-Methyl-5H-indolo[2,3-b] quinolin-11-ylamino) Pyrimidine-2,4(1H,3H)-dione [Compound 6c]”, in data set [1], the CAT is recorded as 6.2 ± 0.30 KU/mg Tissue/s, the “Lipid Peroxidation” value is given as 251.68 ± 11.9 nmol MDA/g Tissue and the SOD is listed as 138.6 ± 6.0 U/g Tissue. Besides, in the data set with EAC cells, the “increase of G2/M fraction relative to positive control” value is on record as around 269.5%, the “increase of cells in S-phase relative to positive control” value is around 411.3%, the “increase of sub-G1 group” value came out at 683% and the “reduction of G0/G1 fraction relative to positive control” value is reported as “about 95.7%”. In the data set on EAC cells, the “Apoptotic Cells (sub-G1)” value was found to be 12.30 ± 0.15, the “Non-Apoptotic Cells G0/G1” value was determined as 3.30 ± 0.15, the “Non-Apoptotic Cells G2/M” value is listed as 56.20 ± 0.1 and the “Non-Apoptotic Cells S” value worked out at 40.50 ± 2.41.
For the compound `Cn1c2nc3ccccc3c-2c(Nc2ccc(Br)cc2F)c2ccccc21` [Compound 6a, N-(4-Bromo-2-fluorophenyl)-5-methyl-5H-indolo[2,3-b] Quinolin-11-amine], in data set [1], the CAT is given as 6.5 ± 0.39 KU/mg Tissue/s, the “Lipid Peroxidation” value was found to be 252.1 ± 7.2 nmol MDA/g Tissue and the SOD is listed as 139.4 ± 2.9 U/g Tissue. Further, in the data set with EAC cells, the “increase of G0/G1 cell population relative to positive control” value amounted to 17.4%, the “increase of sub-G1 group” value was 106%, the “reduction of G2/M fraction relative to positive control” value amounted to 69.7% and the “reduction of S-phase fraction relative to positive control” value is “about 35.3%”. In the data set with EAC cells, the “Apoptotic Cells (sub-G1)” value turned out to be 3.23 ± 0.01, the “Non-Apoptotic Cells G0/G1” value turned out to be 90.27 ± 6.35, the “Non-Apoptotic Cells G2/M” value was determined as 4.61 ± 0.6 and the “Non-Apoptotic Cells S” value was found to be 5.12 ± 0.36.
For “5-Methyl-N-(4-methylpiperazin-1-yl)-5H-indolo[2,3-b] Quinolin-11-amine [Compound 6d]”, in data set [1], the CAT was determined as 6.1 ± 0.20 KU/mg Tissue/s, the “Lipid Peroxidation” value was determined as 248.69 ± 5.5 nmol MDA/g Tissue and the SOD came to 137.9 ± 3.9 U/g Tissue. Also, in the data set on EAC cells, the “increase of G2/M fraction relative to positive control” value amounted to 263.3%, the “increase of sub-G1 group” value came out at 975%, the “reduction of G0/G1 fraction relative to positive control” value is listed as 46% and the “reduction of S-phase fraction relative to positive control” value is 56.6%. In addition, in the data set with EAC cells, the “Apoptotic Cells (sub-G1)” value is recorded as 16.88 ± 0.6, the “Non-Apoptotic Cells G0/G1” value was 41.30 ± 0.31, the “Non-Apoptotic Cells G2/M” value stood at 55.26 ± 0.06 and the “Non-Apoptotic Cells S” value is reported as 3.44 ± 0.27. Also, in the data set on Swiss albino mice (400 mg/kg SC single dose), the “No. of Death” value is on record as 0 and the “% Mortality” value is reported as 0%. Moreover, in the data set with Swiss albino mice (800 mg/kg SC single dose), the “No. of Death” value came out at 2 and the “% Mortality” value is 28.5%. Besides, in the data set on Swiss albino mice (1200 mg/kg SC single dose), the “No. of Death” value was determined as 4 and the “% Mortality” value is reported as 57.1%. Further, in the data set on Swiss albino mice (1600 mg/kg SC single dose), the “No. of Death” value is 6 and the “% Mortality” value stood at 85.7%. For the same compound, in the data set with Swiss albino mice (2000 mg/kg SC single dose), the “No. of Death” value is given as 7 and the “% Mortality” value is 100%. Besides, the LD50 in the data set with Swiss albino mice (subcutaneous, mice, arithmetic method of Karber) was 1000 mg/kg.

Usually LD50 stands for the dose at which mortality reaches 50%. The low end stands for a more toxic substance, the high end for a less toxic substance.
